# Columns and labels:
# [1] = tested on: membrane and soluble proteins of HEK293T cells; test: Gel-based profiling of lipid probe labeling in HEK293T cells; type: cell-based, human; conditions: probe 20 μM, 30 min, UV
# Method: For gel-based analysis, after sonicating the membrane pellets in cold DPBS, protein concentrations of each fraction were determined using the BCA protein assay (Bio-Rad) and a microplate reader (Tecan, Infinite F500).
# Proteomes were diluted to 1.0 mg/mL (total protein concentration) and 50 μL of each proteome was transferred to separate wells in a 96-well plate.
# In some instances, within the arachidonoyl subset of probes, fatty acid- and fatty acid amide-based probes (AA-DA and AEA-DA, respectively) were synthesized and their potential were evaluated to bind and covalently modify (under UV-light exposure) proteins in human cells by gel-based profiling. For example, HEK293T cells were treated with probe (AA-DA or AEA-DA; 20 μM, 30 min), irradiated with UV light (10 min, 4° C.), lysed and the cell proteomes fractionated into membrane and soluble components by centrifugation prior to conjugation to a fluorescent reporter tag (Rh—N3) using CuAAC (FIG. 4A). […] In some instances, this was a consequence of rapid sequestration of this probe into membranes through its metabolic incorporation into phospho/neutral-lipids or into lipidated proteins. […] In some instances, the labeling profile of the AEA-DA probe reflected a limited capacity of the cell to metabolize this amidated probe, which undergoes enzyme-mediated hydrolysis prior to incorporation into other lipids or proteins.
# [2] = target: T1, lipid-binding proteins in Neuro2a cells (Mus musculus, UniProt Q924D0); test: SILAC MS mapping of lipid probe targets (probe-versus-No UV, probe-versus-probe) in Neuro2a cells; type: cell-based; conditions: protein Rtn4ip1, AEA-DA probe, No UV control
# T1 construct: endogenous in cells; host or cells: Neuro2a
# [3] = target: T2, lipid-binding proteins in Neuro2a cells (Mus musculus, UniProt P97300); test: as above; type: cell-based; conditions: AEA-DA probe vs NoUV
# T2 construct: endogenous in cells; host or cells: Neuro2a
# [4] = target: T3, lipid-binding proteins in Neuro2a cells (Mus musculus, UniProt Q99KJ8); test: as above; type: cell-based; conditions: protein Dctn2, AEA-DA probe, No UV control
# T3 construct: endogenous in cells; host or cells: Neuro2a
# [5] = target: T4, lipid-binding proteins in Neuro2a cells (Mus musculus, UniProt Q8BHC4); test: as above; type: cell-based; conditions: AEA-DA probe vs NoUV
# T4 construct: endogenous in cells; host or cells: Neuro2a
# [6] = target: T5, lipid-binding proteins in Neuro2a cells (Mus musculus, UniProt O70503); test: as above; type: cell-based; conditions: AEA-DA probe vs NoUV
# T5 construct: endogenous in cells; host or cells: Neuro2a
# [7] = target: T6, lipid-binding proteins in Neuro2a cells (Mus musculus, UniProt Q61207); test: as above; type: cell-based; conditions: AEA-DA probe vs NoUV
# T6 construct: endogenous in cells; host or cells: Neuro2a
# [8] = tested on: lipid-binding proteins in Neuro2a cells; test: as above; type: cell-based, mouse; conditions: AEA-DA probe vs NoUV
# [9] = target: T7, lipid-binding proteins in Neuro2a cells (Mus musculus, UniProt Q80UU9); test: as above; type: cell-based; conditions: AEA-DA probe vs NoUV
# T7 construct: endogenous in cells; host or cells: Neuro2a
# [10] = target: T8, lipid-binding proteins in Neuro2a cells (Mus musculus, UniProt Q9Z0R9); test: as above; type: cell-based; conditions: AEA-DA probe vs NoUV
# T8 construct: endogenous in cells; host or cells: Neuro2a
# [11] = target: T9, lipid-binding proteins in Neuro2a cells (Mus musculus, UniProt Q9R0P6); test: as above; type: cell-based; conditions: AEA-DA probe vs NoUV
# T9 construct: endogenous in cells; host or cells: Neuro2a
# [12] = target: T10, lipid-binding proteins in Neuro2a cells (Mus musculus, UniProt P52019); test: as above; type: cell-based; conditions: AEA-DA probe vs NoUV
# T10 construct: endogenous in cells; host or cells: Neuro2a
# [13] = target: T11, lipid-binding proteins in Neuro2a cells (Mus musculus, UniProt Q60930); test: as above; type: cell-based; conditions: AEA-DA probe vs NoUV
# T11 construct: endogenous in cells; host or cells: Neuro2a
# [14] = target: T12, lipid-binding proteins in Neuro2a cells (Mus musculus, UniProt Q61712); test: as above; type: cell-based; conditions: AEA-DA probe vs NoUV
# T12 construct: endogenous in cells; host or cells: Neuro2a
# [15] = target: T13, lipid-binding proteins in Neuro2a cells (Mus musculus, UniProt O08579); test: as above; type: cell-based; conditions: AEA-DA probe vs NoUV
# T13 construct: endogenous in cells; host or cells: Neuro2a
# [16] = target: T14, lipid-binding proteins in Neuro2a cells (Mus musculus, UniProt O70252); test: as above; type: cell-based; conditions: AEA-DA probe vs NoUV
# T14 construct: endogenous in cells; host or cells: Neuro2a
# [17] = target: T15, lipid-binding proteins in Neuro2a cells (Mus musculus, UniProt P45878); test: as above; type: cell-based; conditions: protein Fkbp2, AEA-DA probe, No UV control
# T15 construct: endogenous in cells; host or cells: Neuro2a
# [18] = target: T16, lipid-binding proteins in Neuro2a cells (Mus musculus, UniProt Q8BVU5); test: as above; type: cell-based; conditions: protein Nudt9, AEA-DA probe, No UV control
# T16 construct: endogenous in cells; host or cells: Neuro2a
# [19] = target: T17, lipid-binding proteins in Neuro2a cells (Mus musculus, UniProt Q3KNM2); test: as above; type: cell-based; conditions: AEA-DA probe vs NoUV
# T17 construct: endogenous in cells; host or cells: Neuro2a
# [20] = target: T18, lipid-binding proteins in Neuro2a cells (Mus musculus, UniProt Q8VCB1); test: as above; type: cell-based; conditions: AEA-DA probe vs NoUV
# T18 construct: endogenous in cells; host or cells: Neuro2a
# [21] = target: T19, lipid-binding proteins in Neuro2a cells (Mus musculus, UniProt Q9CQ85); test: as above; type: cell-based; conditions: AEA-DA probe vs NoUV
# T19 construct: endogenous in cells; host or cells: Neuro2a
# [22] = target: T20, lipid-binding proteins in Neuro2a cells (Mus musculus, UniProt Q8BJ03); test: as above; type: cell-based; conditions: protein Cox15, AEA-DA probe, No UV control
# T20 construct: endogenous in cells; host or cells: Neuro2a
# [23] = target: T21, lipid-binding proteins in Neuro2a cells (Mus musculus, UniProt Q62465); test: as above; type: cell-based; conditions: AEA-DA probe vs NoUV
# T21 construct: endogenous in cells; host or cells: Neuro2a
# [24] = target: T22, lipid-binding proteins in Neuro2a cells (Mus musculus, UniProt P21619); test: as above; type: cell-based; conditions: protein Lmnb2, AEA-DA probe, No UV control
# T22 construct: endogenous in cells; host or cells: Neuro2a
# [25] = target: T23, lipid-binding proteins in Neuro2a cells (Mus musculus, UniProt Q3UV70); test: as above; type: cell-based; conditions: protein Pdp1, AEA-DA probe, No UV control
# T23 construct: endogenous in cells; host or cells: Neuro2a
# [26] = target: T24, lipid-binding proteins in Neuro2a cells (Mus musculus, UniProt Q924Z4); test: as above; type: cell-based; conditions: AEA-DA probe vs NoUV
# T24 construct: endogenous in cells; host or cells: Neuro2a
# [27] = target: T25, lipid-binding proteins in Neuro2a cells (Mus musculus, UniProt Q8BIJ6); test: as above; type: cell-based; conditions: protein Iars2, AEA-DA probe, No UV control
# T25 construct: endogenous in cells; host or cells: Neuro2a
# [28] = target: T26, lipid-binding proteins in Neuro2a cells (Mus musculus, UniProt Q91VM5); test: as above; type: cell-based; conditions: protein Rbmxl1, AEA-DA probe, No UV control
# T26 construct: endogenous in cells; host or cells: Neuro2a
# [29] = target: T27, lipid-binding proteins in Neuro2a cells (Mus musculus, UniProt Q9CPQ3); test: as above; type: cell-based; conditions: AEA-DA probe vs NoUV
# T27 construct: endogenous in cells; host or cells: Neuro2a
# T13 sequence (O08579 whole entry): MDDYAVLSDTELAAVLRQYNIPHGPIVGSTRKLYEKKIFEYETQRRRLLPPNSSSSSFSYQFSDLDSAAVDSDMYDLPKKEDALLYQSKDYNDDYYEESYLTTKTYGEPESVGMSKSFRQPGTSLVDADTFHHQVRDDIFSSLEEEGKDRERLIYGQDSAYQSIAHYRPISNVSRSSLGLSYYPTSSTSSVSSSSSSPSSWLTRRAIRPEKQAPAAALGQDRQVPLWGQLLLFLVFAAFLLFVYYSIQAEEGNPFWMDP
# T12 sequence (Q61712 44-552): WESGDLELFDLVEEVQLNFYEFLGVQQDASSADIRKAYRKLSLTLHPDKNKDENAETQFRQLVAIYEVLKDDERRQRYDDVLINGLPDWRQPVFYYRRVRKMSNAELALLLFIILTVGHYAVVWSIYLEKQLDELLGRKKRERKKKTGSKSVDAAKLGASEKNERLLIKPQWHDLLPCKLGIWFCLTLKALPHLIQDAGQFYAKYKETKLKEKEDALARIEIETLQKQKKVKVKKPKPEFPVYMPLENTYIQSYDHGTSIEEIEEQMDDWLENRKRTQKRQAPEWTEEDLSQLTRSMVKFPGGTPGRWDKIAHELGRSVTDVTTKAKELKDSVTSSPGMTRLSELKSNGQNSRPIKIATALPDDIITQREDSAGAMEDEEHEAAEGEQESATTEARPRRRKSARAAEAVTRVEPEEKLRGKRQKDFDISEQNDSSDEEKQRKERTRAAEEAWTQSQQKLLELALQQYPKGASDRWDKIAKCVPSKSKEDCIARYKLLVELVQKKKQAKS
# T17 sequence (Q3KNM2 whole entry): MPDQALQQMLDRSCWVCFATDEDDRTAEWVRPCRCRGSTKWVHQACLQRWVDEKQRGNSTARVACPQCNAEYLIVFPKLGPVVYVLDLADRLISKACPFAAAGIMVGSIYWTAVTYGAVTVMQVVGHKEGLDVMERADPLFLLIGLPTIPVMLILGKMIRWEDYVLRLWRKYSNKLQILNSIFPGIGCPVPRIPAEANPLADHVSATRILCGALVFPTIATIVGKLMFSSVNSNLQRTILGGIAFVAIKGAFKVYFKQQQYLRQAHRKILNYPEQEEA
# T14 sequence (O70252 whole entry): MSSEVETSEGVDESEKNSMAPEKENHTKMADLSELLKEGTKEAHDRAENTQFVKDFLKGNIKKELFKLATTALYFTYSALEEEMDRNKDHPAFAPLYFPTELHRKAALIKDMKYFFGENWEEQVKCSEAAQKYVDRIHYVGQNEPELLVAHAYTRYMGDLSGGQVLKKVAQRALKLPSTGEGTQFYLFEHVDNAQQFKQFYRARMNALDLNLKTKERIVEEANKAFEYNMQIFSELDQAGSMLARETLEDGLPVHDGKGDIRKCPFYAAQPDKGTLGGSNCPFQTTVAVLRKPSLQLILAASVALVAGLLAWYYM
# T20 sequence (Q8BJ03 whole entry): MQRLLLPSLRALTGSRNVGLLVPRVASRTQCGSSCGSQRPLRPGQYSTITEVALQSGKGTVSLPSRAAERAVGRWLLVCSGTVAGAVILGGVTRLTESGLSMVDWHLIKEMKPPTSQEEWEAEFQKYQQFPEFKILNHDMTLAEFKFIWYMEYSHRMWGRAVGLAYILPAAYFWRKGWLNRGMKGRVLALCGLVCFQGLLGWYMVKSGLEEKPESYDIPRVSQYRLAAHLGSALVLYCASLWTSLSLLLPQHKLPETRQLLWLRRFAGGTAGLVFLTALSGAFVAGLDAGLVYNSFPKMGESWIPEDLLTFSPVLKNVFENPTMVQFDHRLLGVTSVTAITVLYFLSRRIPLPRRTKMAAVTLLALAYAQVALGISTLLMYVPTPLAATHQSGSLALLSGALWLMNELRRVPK
# T9 sequence (Q9R0P6 whole entry): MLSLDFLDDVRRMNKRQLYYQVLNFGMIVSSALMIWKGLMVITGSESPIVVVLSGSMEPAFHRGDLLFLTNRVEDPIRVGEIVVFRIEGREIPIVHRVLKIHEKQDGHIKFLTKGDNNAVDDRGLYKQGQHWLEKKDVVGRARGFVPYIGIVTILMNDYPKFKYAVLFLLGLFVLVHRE
# T25 sequence (Q8BIJ6 49-1012): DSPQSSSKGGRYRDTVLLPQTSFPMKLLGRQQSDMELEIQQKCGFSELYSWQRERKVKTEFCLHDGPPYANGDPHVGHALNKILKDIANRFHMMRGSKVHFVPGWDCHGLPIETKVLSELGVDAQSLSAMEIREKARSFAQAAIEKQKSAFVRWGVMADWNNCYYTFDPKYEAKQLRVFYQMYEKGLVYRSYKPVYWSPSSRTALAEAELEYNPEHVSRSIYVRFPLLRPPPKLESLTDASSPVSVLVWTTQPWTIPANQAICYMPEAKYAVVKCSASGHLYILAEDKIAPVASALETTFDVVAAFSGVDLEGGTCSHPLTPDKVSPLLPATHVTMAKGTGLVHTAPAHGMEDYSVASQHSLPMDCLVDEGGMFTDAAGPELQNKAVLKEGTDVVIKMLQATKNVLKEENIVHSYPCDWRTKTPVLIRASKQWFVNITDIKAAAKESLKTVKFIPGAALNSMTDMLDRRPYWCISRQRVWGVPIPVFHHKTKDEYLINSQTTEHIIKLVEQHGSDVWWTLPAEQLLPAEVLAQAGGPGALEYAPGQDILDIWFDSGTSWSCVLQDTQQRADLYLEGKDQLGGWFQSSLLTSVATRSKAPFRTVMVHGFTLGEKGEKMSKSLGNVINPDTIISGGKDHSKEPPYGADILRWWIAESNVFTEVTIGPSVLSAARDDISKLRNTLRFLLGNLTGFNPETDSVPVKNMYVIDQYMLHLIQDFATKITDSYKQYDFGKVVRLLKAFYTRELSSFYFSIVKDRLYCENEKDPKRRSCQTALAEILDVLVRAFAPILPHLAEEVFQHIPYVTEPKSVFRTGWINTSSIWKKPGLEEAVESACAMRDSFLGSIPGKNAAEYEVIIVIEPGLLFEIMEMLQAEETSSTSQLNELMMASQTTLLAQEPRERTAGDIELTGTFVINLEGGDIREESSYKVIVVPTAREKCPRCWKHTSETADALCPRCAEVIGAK
# T19 sequence (Q9CQ85 whole entry): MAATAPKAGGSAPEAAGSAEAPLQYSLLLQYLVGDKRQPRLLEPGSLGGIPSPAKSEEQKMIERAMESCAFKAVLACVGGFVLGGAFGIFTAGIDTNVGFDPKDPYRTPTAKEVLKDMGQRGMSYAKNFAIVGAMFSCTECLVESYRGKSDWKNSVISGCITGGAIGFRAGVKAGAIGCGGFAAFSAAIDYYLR
# T22 sequence (P21619 whole entry): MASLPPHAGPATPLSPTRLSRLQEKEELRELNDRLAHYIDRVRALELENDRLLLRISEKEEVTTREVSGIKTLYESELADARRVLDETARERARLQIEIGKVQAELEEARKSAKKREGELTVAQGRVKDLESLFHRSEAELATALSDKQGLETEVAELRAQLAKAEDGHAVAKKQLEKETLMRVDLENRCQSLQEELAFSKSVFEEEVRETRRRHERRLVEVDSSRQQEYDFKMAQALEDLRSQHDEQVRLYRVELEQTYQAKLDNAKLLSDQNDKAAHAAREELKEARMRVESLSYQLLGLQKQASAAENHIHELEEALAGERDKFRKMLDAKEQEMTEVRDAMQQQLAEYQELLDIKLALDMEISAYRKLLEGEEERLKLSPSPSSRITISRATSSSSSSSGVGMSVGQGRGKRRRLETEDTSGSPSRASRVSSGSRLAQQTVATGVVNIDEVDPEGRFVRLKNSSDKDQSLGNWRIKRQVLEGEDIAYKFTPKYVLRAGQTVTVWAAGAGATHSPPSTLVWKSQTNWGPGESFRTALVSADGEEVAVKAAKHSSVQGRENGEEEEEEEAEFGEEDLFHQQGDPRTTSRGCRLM
# T10 sequence (P52019 whole entry): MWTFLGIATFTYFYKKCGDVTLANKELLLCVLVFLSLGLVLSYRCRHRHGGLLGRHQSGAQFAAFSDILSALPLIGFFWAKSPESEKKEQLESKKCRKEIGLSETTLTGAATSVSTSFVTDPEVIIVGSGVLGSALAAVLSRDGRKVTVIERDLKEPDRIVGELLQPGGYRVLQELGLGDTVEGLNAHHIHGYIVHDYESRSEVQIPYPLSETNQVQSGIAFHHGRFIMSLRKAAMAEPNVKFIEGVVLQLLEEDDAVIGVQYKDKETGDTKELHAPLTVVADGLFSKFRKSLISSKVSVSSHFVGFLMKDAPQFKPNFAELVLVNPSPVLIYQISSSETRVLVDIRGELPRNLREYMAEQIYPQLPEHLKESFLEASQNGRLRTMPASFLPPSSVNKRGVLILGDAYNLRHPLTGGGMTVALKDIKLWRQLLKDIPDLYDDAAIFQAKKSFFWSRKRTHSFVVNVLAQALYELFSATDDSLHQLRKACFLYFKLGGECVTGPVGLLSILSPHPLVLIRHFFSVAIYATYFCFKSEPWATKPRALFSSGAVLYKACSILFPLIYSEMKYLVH
# T7 sequence (Q80UU9 whole entry): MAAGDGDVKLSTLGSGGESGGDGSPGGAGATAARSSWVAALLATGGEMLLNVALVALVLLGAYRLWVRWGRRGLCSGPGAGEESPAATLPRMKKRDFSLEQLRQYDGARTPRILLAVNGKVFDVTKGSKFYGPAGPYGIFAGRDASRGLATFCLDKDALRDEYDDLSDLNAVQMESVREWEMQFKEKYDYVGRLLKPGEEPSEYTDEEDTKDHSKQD
# T26 sequence (Q91VM5 whole entry): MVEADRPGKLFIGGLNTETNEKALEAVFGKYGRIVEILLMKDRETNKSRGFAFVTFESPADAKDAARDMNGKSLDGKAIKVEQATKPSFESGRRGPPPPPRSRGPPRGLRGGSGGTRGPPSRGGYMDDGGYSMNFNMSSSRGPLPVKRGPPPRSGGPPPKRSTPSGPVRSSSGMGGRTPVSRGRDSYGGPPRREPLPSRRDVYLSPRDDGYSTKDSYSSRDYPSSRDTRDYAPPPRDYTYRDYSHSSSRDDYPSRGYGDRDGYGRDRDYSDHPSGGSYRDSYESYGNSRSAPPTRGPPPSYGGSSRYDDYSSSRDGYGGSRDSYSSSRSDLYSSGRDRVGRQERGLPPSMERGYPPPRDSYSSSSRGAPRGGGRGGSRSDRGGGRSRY
smiles,measurement,setting,value
"C#CCCCC1(CC/C=C\C/C=C\C/C=C\CCCC(=O)NCCO)N=N1 [AEA-DA, (5Z,8Z,11Z)-N-(2-hydroxyethyl)-14-(3-(pent-4-yn-1-yl)-3H-diazirin-3-yl)tetradeca-5,8,11-trienamide]",protein labeling profile (membrane vs soluble),[1],substantial labeling of both soluble and membrane proteins
same,"SILAC ratio, AEA-DA probe versus No UV",[2],15.1
same,"SILAC ratio, NPTN (Q9Y639)",[3],17.4
same,"SILAC ratio, AEA-DA probe versus No UV",[4],11.6
same,"SILAC ratio, DCAKD (Q8BHC4)",[5],9.0
same,"SILAC ratio, HSD17B12 (Q53GQ0)",[6],15.3
same,"SILAC ratio, PSAP (P07602)",[7],20.0
same,"SILAC ratio, GM20425 (E9Q035)",[8],16.5
same,"SILAC ratio, PGRMC2 (Q80UU9)",[9],16.3
same,"SILAC ratio, FADS2 (Q9Z0R9)",[10],10.5
same,"SILAC ratio, SEC11A (P67812)",[11],5.4
same,"SILAC ratio, SQLE (Q14534)",[12],5.0
same,"SILAC ratio, VDAC2 (P45880)",[13],16.5
same,"SILAC ratio, DNAJC1 (Q96KC8)",[14],20.0
same,"SILAC ratio, EMD (O08579)",[15],20.0
same,"SILAC ratio, HMOX2 (P30519)",[16],4.0
same,"SILAC ratio, AEA-DA probe versus No UV",[17],5.6
same,"SILAC ratio, AEA-DA probe versus No UV",[18],20.0
same,"SILAC ratio, MARCH5 (Q3KNM2)",[19],20.0
same,"SILAC ratio, TMEM48 (Q8VCB1)",[20],14.5
same,"SILAC ratio, TIMM22 (Q9CQ85)",[21],13.6
same,"SILAC ratio, AEA-DA probe versus No UV",[22],12.3
same,"SILAC ratio, VAT1 (Q99536)",[23],4.4
same,"SILAC ratio, AEA-DA probe versus No UV",[24],20.0
same,"SILAC ratio, AEA-DA probe versus No UV",[25],20.0
same,"SILAC ratio, CERS2 (Q924Z4)",[26],17.1
same,"SILAC ratio, AEA-DA probe versus No UV",[27],20.0
same,"SILAC ratio, AEA-DA probe versus No UV",[28],6.0
same,"SILAC ratio, TOMM22 (Q9CPQ3)",[29],20.0

# Source: US10168342B2, “Lipid probes and uses thereof” (THE SCRIPPS RESEARCH INSTITUTE, priority 2015, dated 2019)
